Where a SMILES comes first, the peptide text is derived from it. [ ]: non-standard residue; d: D form. The star is where a group is joined. ξ: configuration not given here. Hydrocinnamoyl = O=C(CCc1ccccc1)*; Nicotinoyl = O=C(c1cccnc1)*; ξF = NC(Cc1ccccc1)C(=O)O; Cbz = O=C(OCc1ccccc1)*; Hexanoyl = CCCCCC(=O)*; PhAc = O=C(Cc1ccccc1)*; Boc = CC(C)(C)OC(=O)*; Butyryl = CCCC(=O)*; Bz = O=C(c1ccccc1)*
Columns and labels:
[1] = Inhibition of human recombinant Cathepsin L-like protease using Z-FR-AMC as substrate preincubated for 30 mins followed by substrate addition and measured after 1.5 hrs by fluorescence based analysis
[2] = target: Replicase polyprotein 1ab (Severe acute respiratory syndrome coronavirus 2, UniProt P0DTD1); test: Inhibition of recombinant SARS-CoV-2 3CLpro using MCA-AVLQSGFR-Lys(Dnp)-Lys-NH2 as substrate incubated for 1.5 hrs by fluorescence based analysis

Compound	IC50 [1] [nM]	IC50 [2] [nM]
CC(C)C[C@H](NC(=O)/C=C/c1ccccc1)C(=O)N[C@H](C=O)Cc1cccc(F)c1	162	> 10000
COc1ccc(C(=O)N[C@@H](CC(C)C)C(=O)N[C@H](C=O)Cc2ccccc2)cc1	6.06	> 10000
CC(C)C[C@H](NC(=O)/C=C/c1ccccc1)C(=O)N[C@@H](Cc1ccccc1)C(=O)CCl	9.87	> 10000
CC(C)C[C@H](NC(=O)/C=C/c1ccccc1)C(=O)N[C@@H](C=O)Cc1ccccc1	> 1000	> 10000
CC(C)C[C@H](NC(=O)c1ccccc1)C(=O)N[C@H](C=O)Cc1ccccc1 (Bz-Leu-Phe-aldehyde)	7.56	> 10000
CC(C)C[C@H](NC(=O)c1ccc(F)cc1)C(=O)N[C@H](C=O)Cc1ccccc1	9.85	> 10000
CC(C)C[C@H](NC(=O)c1ccccn1)C(=O)N[C@H](C=O)Cc1ccccc1	26.4	> 10000
CC(C)C[C@H](NC(=O)c1ccc(Cl)cc1)C(=O)N[C@H](C=O)Cc1ccccc1	9.47	> 10000
CC(C)C[C@H](NC(=O)/C=C/c1ccccc1)C(=O)N[C@H](C=O)Cc1ccccc1F	23.4	> 10000
CC(C)C[C@H](NC(=O)c1cccnc1)C(=O)N[C@H](C=O)Cc1ccccc1 (Nicotinoyl-Leu-Phe-aldehyde)	14.4	> 10000
CC(C)C[C@H](NC(=O)c1ccc[nH]1)C(=O)N[C@H](C=O)Cc1ccccc1	37.7	> 10000
CC(C)C[C@H](NC(=O)C1CCOCC1)C(=O)N[C@H](C=O)Cc1ccccc1	20.2	> 10000
CC(C)C[C@H](NC(=O)c1cc2ccccc2[nH]1)C(=O)N[C@H](C=O)Cc1ccccc1	10.1	> 10000
CC(C)C[C@H](NC(=O)/C=C/c1ccc(Cl)cc1)C(=O)N[C@H](C=O)Cc1ccccc1	23.5	> 10000
CC(C)C[C@H](NC(=O)c1ccc([N+](=O)[O-])cc1)C(=O)N[C@H](C=O)Cc1ccccc1	8.19	> 10000
CC(C)[C@H](NC(=O)/C=C/c1ccccc1)C(=O)N[C@H](C=O)Cc1ccccc1	22	> 10000
O=C[C@H](Cc1ccccc1)NC(=O)[C@H](Cc1ccccc1F)NC(=O)/C=C/c1ccccc1	6.82	> 10000
COc1ccc(/C=C/C(=O)N[C@@H](CC(C)C)C(=O)N[C@H](C=O)Cc2ccccc2)cc1	55.4	> 10000
CC(C)C[C@H](NC(=O)/C=C/c1ccccc1)C(=O)N[C@H](C=O)C(C)C	23.4	> 10000
O=C[C@H](Cc1ccccc1)NC(=O)[C@H](Cc1cccc(F)c1)NC(=O)/C=C/c1ccccc1	6.56	> 10000
CC(C)C[C@H](NC(=O)Cc1c[nH]c2ccccc12)C(=O)N[C@H](C=O)Cc1ccccc1	3.18	> 10000
O=C[C@H](Cc1ccccc1)NC(=O)[C@H](Cc1ccccc1)NC(=O)/C=C/c1ccccc1	6.65	> 10000
C=Cc1ccc(C(=O)N[C@@H](CC(C)C)C(=O)N[C@H](C=O)Cc2ccccc2)cc1	9.41	> 10000
CC(C)C[C@H](NC(=O)C1CCC(F)(F)CC1)C(=O)N[C@H](C=O)Cc1ccccc1	6.29	> 10000

Compound	IC50 [1] [nM]	IC50 [2] [nM]
CC(C)C[C@H](NC(=O)/C=C/c1cccc(Cl)c1)C(=O)N[C@H](C=O)Cc1ccccc1	27.1	> 10000
CC(C)C[C@H](NC(=O)c1ccoc1)C(=O)N[C@H](C=O)Cc1ccccc1	24.2	> 10000
CC(C)C[C@H](NC(=O)/C=C/c1ccc(F)cc1)C(=O)N[C@H](C=O)Cc1ccccc1	20.1	> 10000
CC(C)C[C@H](NC(=O)c1cc[nH]c1)C(=O)N[C@H](C=O)Cc1ccccc1	37.3	> 10000
CC(C)C[C@H](NC(=O)c1ccncc1)C(=O)N[C@H](C=O)Cc1ccccc1	8.46	> 10000
CC(C)C[C@H](NC(=O)c1ccc(Br)cc1)C(=O)N[C@H](C=O)Cc1ccccc1	9.59	> 10000
CC(C)C[C@H](NC(=O)CCc1ccccc1)C(=O)N[C@H](C=O)Cc1ccccc1 (Hydrocinnamoyl-Leu-Phe-aldehyde)	18.2	> 10000
CC(C)C[C@H](NC(=O)c1ccsc1)C(=O)N[C@H](C=O)Cc1ccccc1	8.15	> 10000
CC(C)C[C@H](NC(=O)/C=C/c1ccc(Br)cc1)C(=O)N[C@H](C=O)Cc1ccccc1	38.4	> 10000
O=C[C@H](Cc1ccccc1)NC(=O)[C@H](Cc1ccc(Cl)cc1)NC(=O)/C=C/c1ccccc1	8.91	> 10000
CC(C)[C@H](NC(=O)OCc1ccccc1)C(=O)NC(C=O)Cc1ccccc1 (stereo partly drawn) (Cbz-Val-[ξF]-aldehyde)	19900	
CSCC[C@@H](C=O)NC(=O)[C@H](CC(C)C)NC(=O)/C=C/c1ccccc1	29.4	> 10000
CCCC[C@H](NC(=O)/C=C/c1ccccc1)C(=O)N[C@H](C=O)Cc1ccccc1	157	> 10000
CC(C)C[C@H](NC(=O)/C=C/c1ccccc1Cl)C(=O)N[C@H](C=O)Cc1ccccc1	9.57	> 10000
CCC(=O)[C@H](Cc1ccccc1)NC(=O)[C@H](CC(C)C)NC(=O)/C=C/c1ccccc1	> 1000	> 10000
O=C[C@H](Cc1ccccc1)NC(=O)[C@H](Cc1ccc(F)cc1)NC(=O)/C=C/c1ccccc1	6.68	> 10000
CC(C)C[C@H](NC(=O)c1ccco1)C(=O)N[C@H](C=O)Cc1ccccc1	17.4	> 10000
CC(C)C[C@H](NC(=O)Cc1ccccc1)C(=O)N[C@H](C=O)Cc1ccccc1 (PhAc-Leu-Phe-aldehyde)	7.82	> 10000
CC(C)C[C@H](NC(=O)/C=C/c1ccccc1)C(=O)N[C@H](C=O)Cc1ccccc1Br	180	> 10000
CC[C@H](C)[C@H](NC(=O)/C=C/c1ccccc1)C(=O)N[C@H](C=O)Cc1ccccc1	170	> 10000
CCC[C@H](NC(=O)/C=C/c1ccccc1)C(=O)N[C@H](C=O)Cc1ccccc1	125	> 10000
CC(C)C[C@H](NC(=O)c1ccc2ccccc2c1)C(=O)N[C@H](C=O)Cc1ccccc1	2.83	> 10000
COc1ccc(C[C@@H](C=O)NC(=O)[C@H](CC(C)C)NC(=O)/C=C/c2ccccc2)cc1	131	> 10000
CCCCCC(=O)N[C@@H](CC(C)C)C(=O)N[C@H](C=O)Cc1ccccc1 (Hexanoyl-Leu-Phe-aldehyde)	34.6	> 10000

Compound	IC50 [1] [nM]	IC50 [2] [nM]
CC(C)C[C@H](NC(=O)/C=C/c1ccccc1)C(=O)N[C@H](C=O)CC1CCCCC1	47.8	> 10000
CC(C)C[C@H](NC(=O)C1CCCCC1)C(=O)N[C@H](C=O)Cc1ccccc1	6.06	> 10000
CC(C)C[C@H](NC(=O)/C=C/c1ccccc1F)C(=O)N[C@H](C=O)Cc1ccccc1	16.5	> 10000
CCCC(=O)N[C@@H](CC(C)C)C(=O)N[C@H](C=O)Cc1ccccc1 (Butyryl-Leu-Phe-aldehyde)	72.7	> 10000
CC(C)C[C@H](NC(=O)/C=C/c1ccccc1)C(=O)N[C@H](C=O)Cc1ccc([N+](=O)[O-])cc1	345	> 10000
CC(C)C[C@H](NC(=O)c1cccc(F)c1)C(=O)N[C@H](C=O)Cc1ccccc1	7.5	> 10000
CC(C)C[C@H](NC(=O)c1ccccc1F)C(=O)N[C@H](C=O)Cc1ccccc1	9.66	> 10000
CC(C)C[C@H](NC(=O)c1ccc2[nH]ccc2c1)C(=O)N[C@H](C=O)Cc1ccccc1	2.05	> 10000
O=C[C@H](Cc1ccccc1)NC(=O)[C@H](CC1CCCCC1)NC(=O)/C=C/c1ccccc1	53	> 10000
C=CC(=O)[C@H](Cc1ccccc1)NC(=O)[C@H](CC(C)C)NC(=O)/C=C/c1ccccc1	> 1000	> 10000
O=C[C@H](Cc1ccccc1)NC(=O)[C@H](Cc1ccc(Br)cc1)NC(=O)/C=C/c1ccccc1	11.6	> 10000
CC(C)C[C@H](NC(=O)/C=C/c1ccccc1)C(=O)N[C@H](C=O)Cc1ccc(F)cc1	74.1	> 10000
C[C@H](NC(=O)/C=C/c1ccccc1)C(=O)N[C@H](C=O)Cc1ccccc1	42.1	> 10000
CC(C)C[C@H](NC(=O)/C=C/c1ccccc1)C(=O)N[C@@H](Cc1ccccc1)C(N)=O	> 1000	> 10000
CC(C)C[C@H](NC(=O)/C=C/c1cccc(F)c1)C(=O)N[C@H](C=O)Cc1ccccc1	46.2	> 10000
CC(C)C[C@H](NC(=O)OC(C)(C)C)C(=O)N[C@H](C=O)Cc1ccccc1 (Boc-Leu-Phe-aldehyde)	165	> 10000
CC(C)C[C@H](NC(=O)/C=C/c1ccccc1)C(=O)N[C@H](C=O)CCc1ccccc1	26	> 10000
CC(C)C[C@H](NC(=O)/C=C/c1ccccc1)C(=O)N[C@H](C=O)Cc1ccc(C(F)(F)F)cc1	253	> 10000
CC(C)C[C@H](NC(=O)c1cccc2ccccc12)C(=O)N[C@H](C=O)Cc1ccccc1	1.26	> 10000
CC(C)C[C@H](NC(=O)/C=C/c1ccc(C(F)(F)F)cc1)C(=O)N[C@H](C=O)Cc1ccccc1	75.8	> 10000
CC(C)(C)[C@H](NC(=O)/C=C/c1ccccc1)C(=O)N[C@H](C=O)Cc1ccccc1	182	> 10000
COC(=O)/C=C/[C@H](Cc1ccccc1)NC(=O)[C@H](CC(C)C)NC(=O)/C=C/c1ccccc1	> 1000	> 10000
CC(C)C[C@H](NC(=O)/C=C/c1ccccc1)C(=O)N[C@H](C=O)Cc1ccccc1Cl	58	> 10000
CC(C)C[C@H](NC(=O)c1ccc(-c2ccccc2)cc1)C(=O)N[C@H](C=O)Cc1ccccc1	20.9	> 10000

Source: ChEMBL document CHEMBL6120945, “Peptidomimetic Analogues Act as Effective Inhibitors against SARS-CoV-2 by Blocking the Function of Cathepsin L” (J Med Chem, 2024)
